Source: patent US6858620B2, “Condensed pyridoindole derivatives” (Lilly ICOS, LLC, priority 2000, dated 2005)
pIC50: −log10 of the molar value.

How the values were obtained:
human recombinant PDE5 = target: T1, human recombinant PDE5 (Homo sapiens, UniProt O76074); assay: Inhibitory effect on cGMP-PDE (PDE5 IC50, one-step assay); assay type: biochemical; conditions: in vitro, 0.15 μM 8-[H3]-cGMP, 30 minutes incubation
T1 construct: host or cells: Saccharomyces cerevisiae strain BJ2-54 (ATCC 74465), described as an exemplary method
Procedure: The compounds of structural formula (I) were tested for an ability to inhibit PDE5. The ability of a compound to inhibit PDE5 activity is related to the IC50 value for the compound, i.e., the concentration of inhibitor required for 50% inhibition of enzyme activity. The IC50 value for compounds of structural formula (I) were determined using recombinant human PDE5.
cGMP-PDE activity of compounds of the present invention was measured using a one-step assay adapted from Wells et al., Biochim. Biophys. Acta, 384, 430 (1975). The reaction medium contained 50 mM Tris-HCl, pH 7.5, 5 mM magnesium acetate, 250 μg/ml 5′-Nucleotidase, 1 mM EGTA, and 0.15 μM 8-[H^3]-cGMP. Unless otherwise indicated, the enzyme used was a human recombinant PDE5 (ICOS Corp., Bothell, Wash.).
Compounds of the invention were dissolved in DMSO finally present at 2% in the assay.

| Structure (SMILES) | pIC50 (human recombinant PDE5) | melting point [°C] |
| --- | --- | --- |
| CN1C[C@@H]2Cc3c([nH]c4ccccc34)[C@H](c3ccc4c(c3)OCO4)N2C1=O (racemic) [Example 11, (+−, cis)-10-Benzo[1,3]dioxol-5-yl-2-methyl-2,3,3a,4,9,10-hexahydro-2,9,10a-triazacyclopenta[b]fluoren-1-one] | 7.22 |  |
| COc1ccc([C@@H]2c3[nH]c4ccccc4c3C[C@H]3C(=O)N(Cc4ccccc4)CN23)cc1 (racemic) [Example 12, (+−, cis)-2-Benzyl-10-(4-methoxyphenyl)-1,2,3a,4,9,10-hexahydro-2,9,10a-triazacyclopenta[b]fluoren-3-one] | 7.22 |  |
| O=C1CCN2[C@H](c3ccc4c(c3)OCO4)c3[nH]c4ccccc4c3C[C@H]12 (racemic) [Example 14, (+−, trans)-5-Benzo[1,3]dioxol-5-yl,2,3,5,6,11,11a-hexahydro-indolizino[6,7-b]indol-1-one] | 6.41 |  |
| O=C1OC(=O)N2[C@H](c3ccc4c(c3)OCO4)c3[nH]c4ccccc4c3C[C@H]12 [Example 1, (3aR,10R)-(+)-10-Benzo[1,3]dioxol-5-yl-3a,4,9,10-tetrahydro-2-oxa-9,10a-diaza-cyclopenta[β]fluorene-1,3-dione] | 6.69 | 197 to 202 |
| O=C1CC(=O)N2C1Cc1c([nH]c3ccccc13)C2c1ccc2c(c1)OCO2 (centres unmarked) [Example 9, 5-Benzo[1,3]dioxol-5-yl-5,6,11,11a-tetrahydroindolizino[6,7-b]indole-1,3-dione] | 6.70 |  |
| O=C1OCC2Cc3c([nH]c4ccccc34)C(c3ccc4c(c3)OCO4)N12 (centres unmarked) [Example 13, 10-Benzo[1,3]dioxol-5-yl-3a,4,9,10-tetrahydro-3H-2-oxa-9,10a-diazacyclopenta[b]fluoren-1-one] | 7.15 |  |

Stronger by pIC50 (human recombinant PDE5), values ahead:

| pIC50 (human recombinant PDE5) | melting point [°C] | Structure (SMILES) |
| --- | --- | --- |
| 7.28 |  | O=C1OC(=S)N2[C@H](c3ccc4c(c3)OCO4)c3[nH]c4ccccc4c3C[C@H]12 [Example 3, (3aR,10R)-10-Benzo[1,3]dioxol-5-yl-1-thioxo3a,4,9,10-tetrahydro-2-oxa-9,10a-diaza-cyclopenta[β]fluoren-3-one] |
| 7.70 |  | CCCCN1C(=O)[C@@H]2Cc3c([nH]c4ccccc34)[C@H](c3ccc(OC)cc3)N2C1=S (racemic) [Example 7, (+−, trans)-2-Butyl-10-(4-methoxyphenyl)-1-thioxo-1,2,3a,4,9,10-hexahydro-2,9,10a-triazacyclopenta-[b]fluoren-3-one] |
| 7.70 |  | O=S1OCC2Cc3c([nH]c4ccccc34)C(c3ccc4c(c3)OCO4)N21 (centres unmarked) [Example 15, 10-Benzo[1,3]dioxol-5-yl-3a,4,9,10-tetrahydro-3H-2-oxa-1-thia-9,10a-diazacyclopenta[b]fluorene-1-oxide] |
| 7.92 | 168 to 174 | CN1C(=O)N2[C@H](c3ccc4c(c3)OCO4)c3[nH]c4ccccc4c3C[C@H]2C1=S [Example 5, (3aS,10R)-10-Benzo(1,3)dioxol-5-yl-2-methyl-3-thioxo-2,3,3a,4,9,10-hexahydro-2,9,10a-triazacyclopenta[b]fluoren-1-one] |
| 7.92 | 234 to 236 | CN1C(=O)[C@@H]2Cc3c([nH]c4ccccc34)[C@@H](c3ccc4c(c3)OCO4)N2C1=S [Example 6, (3aS,10R)-10-Benzo(1,3)dioxol-5-yl-2-methyl-1-thioxo-1,2,3a,4,9,10-hexahydro-2,9,10a-triazacyclopenta[b]fluoren-3-one] |
